Reference: ChEMBL document CHEMBL3600339, “Novel Resveratrol-Based Aspirin Prodrugs: Synthesis, Metabolism, and Anticancer Activity” (J Med Chem, 2015)
Calls of active or inactive are those of the source. The calls are words filed in the database; no cut-off is given here.

How the values were obtained:
[1] = system: HCT-116; assay: Induction of apoptosis in human HCT116 cells assessed as upregulation of Bim expression after 24 hrs by Western blot analysis; type: functional, cell-based
[2] = system: HCT-116; assay: Induction of apoptosis in human HCT116 cells assessed as downregulation of Bcl2 expression after 24 hrs by Western blot analysis; type: functional, cell-based
[3] = system: HT-29; assay: Cell cycle arrest in human HT-29 cells assessed as accumulation at G0/G1 phase at 40 uM after 24 hrs by propidium iodide staining-based flow cytometric analysis (reference value: 33.61%); type: functional
[4] = system: HCT-116; assay: Induction of apoptosis in human HCT116 cells assessed as upregulation of cytochrome C expression at 20 to 60 uM after 24 hrs by Western blot analysis; type: functional, cell-based
[5] = system: HT-29; assay: Induction of apoptosis in human HT-29 cells at 20 uM after 24 hrs by propidium iodide staining-based flow cytometric analysis (reference value: 3.74%); type: functional
[6] = system: HT-29; assay: Induction of apoptosis in human HT-29 cells assessed as downregulation of Bcl2 expression after 24 hrs by Western blot analysis; type: functional, cell-based
[7] = system: HCT-116; assay: Cytotoxicity against human HCT116 cells assessed as inhibition of colony formation after 2 weeks by crystal violet staining assay; type: functional, cell-based
[8] = system: HT-29; assay: Cell cycle arrest in human HT-29 cells assessed as accumulation at G1 phase after 24 hrs by propidium iodide staining-based flow cytometric analysis; type: functional
[9] = system: Stomach; assay: Retention time of the compound in C57BL/6J mouse stomach content at 200 mg/kg, ig by HPLC-CEAD analysis; type: ADME, organism-based; settings: in vivo, po
[10] = system: HT-29; assay: Cell cycle arrest in human HT-29 cells assessed as accumulation at G2/M phase at 60 uM after 24 hrs by propidium iodide staining-based flow cytometric analysis (reference value: 31.81%); type: functional
[11] = system: HT-29; assay: Cell cycle arrest in human HT-29 cells assessed as accumulation at G2/M phase at 20 uM after 24 hrs by propidium iodide staining-based flow cytometric analysis (reference value: 31.81%); type: functional
[12] = Retention time of the compound in C57BL/6J mouse feces at 200 mg/kg, ig by HPLC-CEAD analysis; type: ADME, organism-based; settings: in vivo, po
[13] = system: HT-29; assay: Induction of apoptosis in human HT-29 cells assessed as upregulation of cytochrome C expression at 20 to 60 uM after 24 hrs by Western blot analysis; type: functional, cell-based
[14] = system: HCT-116; assay: Cell cycle arrest in human HCT116 cells assessed as accumulation at G2/M phase at 60 uM after 24 hrs by propidium iodide staining-based flow cytometric analysis (reference value: 23.75%); type: functional
[15] = system: HCT-116; assay: Cell cycle arrest in human HCT116 cells assessed as accumulation at G2/M phase at 40 uM after 24 hrs by propidium iodide staining-based flow cytometric analysis (reference value: 23.75%); type: functional

Retention_time [9]: 43 min
Retention_time [12]: 43 min
Compound: CC(=O)Oc1ccccc1C(=O)Oc1ccc(/C=C/c2cc(O)cc(O)c2)cc1
Activity [1]: Dose-dependent effect
Activity [2]: Dose-dependent effect
Activity [3]: 37.44%
Activity [4]: Active
Activity [5]: 16.4%
Activity [6]: Dose-dependent effect
inhibition [7]: Dose-dependent effect
Activity [8]: Dose-dependent effect
Activity [10]: 4.95%
Activity [11]: 24.31%
Activity [13]: Active
Activity [14]: 8.39%
Activity [15]: 11.03%
